Assay results published in patent US9771563B2, “Chemical approaches for generation of induced pluripotent stem cells” (The Scripps Research Institute, priority 2008, dated 2017).

How the values were obtained:
[1] = test system: cellular reprogramming; assay: Enhancement of cellular reprogramming by nuclear receptor ligands; format: cell-based
[2] = test system: human primary fibroblasts (CRL2097 or BJ); assay: Reprogramming of human primary fibroblasts transduced with 4TFs; format: cell-based
Protocol: We tested known inhibitors of the TGFβ receptor and MEK on 1×10^4 [Feng, B. et al., Cell Stem Cell 4, 301-12 (2009)] human primary fibroblasts (CRL2097 or BJ) that were retrovirally transduced with the 4TFs (Oct4, Klf4, Sox2 and c-Myc), for their effects on reprogramming kinetics and efficiency. On day 7 (D7) post-infection, the compounds were added, individually or in combinations, and the cultures were examined for iPSCs over the next 1-3 weeks.
The Slc7a1-expressing human fibroblast cells were seeded at 1×10^5 cells/well of a 6 well plate on the day 1. On day 2, 0.25 ml of each retroviral supernatant was added to the cells in the presence of 6 μg/ml polybrene. A second round of transduction was done on day 3. Infection efficiency was estimated by fluorescence microscopy on cells transduced in parallel with GFP or RFP gene-carrying retroviruses. Seven days after initial transduction, fibroblasts were harvested by trypsinization and re-plated at 1×10^4 cells/well of a 6 well plate coated with matrigel (1:50 dilution, cat 354234, BD Biosciences). For compound treatment, the cells were cultured in human reprogramming medium (DMEM/F12, 20% Knockout serum replacer, lx MEM Non-Essential amino acid, lx glutamax, 0.11 mM 2-Mercaptoethanol, 20 ng/ml bFGF and 1,000 U/ml LIF) and were treated with 2 μM SB431542 (Stemgent), 0.5 μM PD0325901 (Stemgent), or combinations of the compounds. The media were changed every 2-3 days depending on the cell density. Seven days after compound treatment, either the plates were fixed and stained for Alkaline phosphatase (ALP) activity, or stained for protein markers, or the cultures were continued with or without indicated splitting by trypsinization till day 30. For split cultures, the cells were split (1:4) and re-plated onto irradiated CF-1 MEF feeder layer (2.5×10^5 cells/well) in each well of 6 well plate and were split (1:10) again on day 21. The cells were maintained in the same media and compound cocktail described above except for the concentrations of PD0325901 (0.5 μM for D14 and 1 μM for D21) and SB431542 (0.5-1 μM after D14). The iPSC colonies were subsequently maintained in conventional hESC media in the absence of the above compounds.
Alkaline phosphatase staining was performed using ALP detection kit (cat no: SCR004, Chemicon) according to the product instructions. For immunocytochemistry, cells were fixed in 4% paraformaldehyde (10 min, RT), washed twice with PBS, blocked using 5% normal donkey serum (Chemicon) and 0.1% TritonX-100 (15 min, RT) and then treated with primary antibodies overnight at 4° C. The primary antibodies used were anti-NANOG (cat no: AB9220, Chemicon, 1:1,000); anti-OCT4 (cat no: sc-5279, Santa Cruz biotech, 1:200), anti-SSEA 4 (cat no: mab4304, Chemicon, 1:500), anti-Tra-1-81 (cat 560123, BD Biosciences, 1:100), anti-Tra-1-81 (mAb 4381, Chemicon, 1:500), anti-βIII TUBULIN (cat no: MMS-435P, Covance Research Products Inc, 1:1000), anti-PDX 1 (1:500) (a kind gift from Dr. C. Wright), anti-BRACHYURY (cat No: AF2085, R & D, final concentration 0.2 μg/ml). The cells were washed twice with PBS and then treated with secondary antibodies for 1 hour at room temperature. The secondary antibodies used were Alexa fluor 488 donkey anti-rabbit or anti-mouse IgG (Invitrogen, 1:1,000) and Alexa fluor 555 donkey anti-rabbit or anti-mouse IgG (Invitrogen, 1:1,000). Nuclei were stained with 0.5 μg/ml DAPI (Sigma). Images were captured using a Nikon Eclipse TE2000-U/X-cite 120 EXFO microscope with a photometric CoolSnap HQ2 camera.
We tested the TGFβ receptor inhibitor (SB431542), MEK inhibitor (PD0325901) and GSK-3 inhibitor (CHIR99021), on human fibroblast crl2097 that were retrovirally transduced with Oct4, Klf4, Sox2 and c-Myc, for their effects on reprogramming kinetics and efficiency. Conditions are the same as set forth in Example 5. Data were collected 8 days after compound treatment.

[3] = test system: OG2 MEFs; assay: Reprogramming of OG2 MEFs retrovirally transduced with OSKM or OSK (EGFP positive colonies); format: cell-based, mouse; conditions: 2 μM SB431542, 5 μM CHIR99021, 0.1 μM PD0325901
Protocol: MEFs were derived from OG2 mice according to the protocol reported on WiCell Research Institute website: “Introduction to human embryonic stem cell culture methods”. OG2 transgenic mice carry both GFP under the control of the Oct4 promoter. MEFs were transduced with either (1) Oct4, Klf4, Sox2 and c-Myc; or (2) Oct4, Klf4, and Sox2 as described (Takahashi & Yamanaka, Cell. 2006; 126:663-676). […] Transduced MEFs were then treated with chemicals or chemical combinations, including GSK-3 inhibitor CHIR99021 (5 μM), TGFβ receptor inhibitor SB431542 (2 μM), MEK inhibitor PD0325901 (0.1 μM) for 11 days (for Oct4, Klf4, Sox2 and c-Myc transduced MEFs) or 13 days (for Oct4, Klf4 and Sox2 transduced MEFs), and EGFP positive colonies were counted.

[4] = test system: mouse fibroblasts; assay: Reprogramming of mouse fibroblasts with exogenous poly-Arg transcription factor proteins; format: cell-based; conditions: cells incubated with transcription factor proteins plus agent
Protocol: Mouse fibroblasts were grown in mESC medium supplemented with 8 μg/ml of either Oct4/Sox2/Klf4 or Oct4/Sox2/Klf4/Myc (all proteins comprising poly-Arg as described above) for 6-8 hours, washed, and incubated for 2-3 days in mESC media without the above-listed transcription factors. This (4-12 hours with, 1-3 days without) was repeated a number (1, 2, 3, 4, or more) of times and then the cells were cultured in mESC for two weeks.
Mouse fibroblasts were grown in mESC growth medium [Knockout DMEM (Invitrogen) supplemented with 10% ES-FBS+10% KSR, 0.1 mM 2-ME, 1% Glutamax, 1% Non-essential amino acids, 1% EmbryoMax ESC Qualified Nucleosides (Millipore), and 10^3 units/ml LIF (ESGRO, Chemicon International)] supplemented with 8 μg/ml of Oct4/Sox2/Klf4/Myc (all four transcription factors are tagged with poly-Arg […]; SEQ ID NO:2) for 4-12 hours, followed by culturing the cells in the absence of the Oct4/Sox2/Klf4/Myc polypeptides for one day. This procedure was repeated 4 times. The cells were then cultured in mESC medium for another two weeks. iPSC clones were detected by colony morphology and expression of pluripotency markers. An intermediate iPSC clone, which expresses ALP but not Oct4 (Oct4), was dissociated with Trypsin-EDTA. The clone was then expanded by continuous culturing with regular mESC medium or medium supplemented with 0.5 μM PD0325901, 3 μM CHIR99021, 0.5 μM A-83-01. The number of Oct4-positive colonies were counted 2 weeks after small molecule treatment (FIG. 14).

[5] = test system: mES R1 cells; assay: Proliferation assay; format: cell-based, mouse; conditions: 2 μM BayK, 1 μM BIX; 15, 24, 48 hours; vs DMSO
Protocol: mES R1 cells were plated onto gelatin-coated 6-well plates at a density of 2×10^5 cells/well in complete mES cell media. Upon cell attachment, app. 12 hours, the cells were treated either with DMSO, 1 μM BIX, 2 μM BayK, and a combination of both, in triplicate. At 15, 24 and 48 hours, the cells were detached using trypsin, and counted using a hemocytometer. Trypan blue (Sigma-Aldrich, St. Louis, Mo.) was used for dead cell exclusion.

[6] = test system: mouse embryonic fibroblasts (129 or OG2 MEFs); assay: Screen for iPSC generation from MEFs transduced with Oct4/Klf4 (OK); format: cell-based
Protocol: Unmodified MEFs derived from E13-14 embryos of the 129 mice were used for the initial screen. MEFs were plated on Matrigel at 3.5×10^4 cells/well of a 6-well plate and transduced with OK (retroviral vectors expressing Oct4 and Klf4) alone. Within 14-21 days, treated cells were assessed for the appearance of colonies that had the characteristic embryonic stem cell (ESC) colony morphology and were positive for the pluripotency marker alkaline phosphatase (ALP). Such OK-transduced cells generated only a few small non-compact colonies, which were weakly positive for ALP expression. These colonies initially appeared within 21 days after viral transduction and were difficult to expand. Therefore, such assay system offered a clean background for the identification of small molecules having desirable reprogramming inducing activity. Using this system, compounds from a library of around 2000 known small molecules (see Experimental Procedures below) were screened and were identified as hits when they induced the appearance of ESC colonies that were strongly positive for ALP within 14-21 days after treatment. This image-based method provided a more accurate assessment of reprogramming as compared to homogenous reporter-based assay. BIX appeared to have the strongest effect with reproducible induction of more than 1-2 compact ESC-like colonies with high ALP expression. We observed that when MEFs were treated with BIX after OK viral transduction, compact colonies with strong ALP expression could be readily detected within approximately 14-21 days. These cells were also positive for Nanog, Oct4 and SSEA-1 expression. […] However, the reprogramming efficiency in MEFs transduced with OK and treated with BIX was still low, about 2 colonies/3.5×10^4 cells, in comparison to the four factor-induced reprogramming of MEFs or the OK/BIX NPC reprogramming (Shi, Y. et al., Cell Stem Cell, 2:525-528 (2008)). Therefore, we conducted a second screen using a similar protocol, but where BIX was added to the basal media after OK viral transduction. This provided a more permissive platform to identify new small molecules that could further improve reprogramming efficiency. More importantly, this second screen could facilitate discovery of small molecules that impact reprogramming in a more specific manner, for example by acting on signal transduction pathways rather than on histone or DNA modifying enzymes. In this second screen, we again assayed the library of around 2000 known small molecules (see Experimental Procedures), and confirmed two compounds that were able to act in a synergistic manner with BIX to improve reprogramming based on the criteria of the screen. […] Therefore, RG108 was not pursued further for this study. Instead, we focused our phenotypic and functional characterization on another small molecule that was identified in the second screen, BayK, an L-calcium channel agonist. […] Therefore, BayK might play a more specific role in the reprogramming process. When 129 MEFs were transduced with empty retrovirus (negative control); no colonies observed. When 129 MEFs were transduced with OK without small molecules; few small flattened colonies with weak ALP expression present. […] When OK-transduced MEFs were treated with BIX in combination with BayK, a significant increase in the number of ALP^+ colonies that closely resemble the mESC morphology could be observed (˜7 colonies) as compared to OK-transduced MEFs treated with BIX alone (˜2 colonies).
Primary 12952/SvPasCrlf (primary screen) or ROSA26^+/−/OG2^+/− (secondary screen) MEFs were plated onto Matrigel (1:50; BD Biosciences, Bedford, Mass.) coated dishes at a density of 3.5×10^4 cells per well of a 6-well plate. Twenty-four hours later, these cells were transduced overnight with defined retroviruses at 37° C., 5% CO2. […] (all products were from Invitrogen, Carlsbad, Calif., except where mentioned). […]

[7] = test system: OG2+/-/ROSA26+/- MEFs; assay: Assessment of SOX2 expression after compound treatment (RT-PCR); format: cell-based, mouse; conditions: 2 μM BayK, 1 μM BIX, 6 days
Protocol: OG2^+/−/ROSA26^+/− MEFs were plated onto 6-well plate at a density of 3.4×10^4 cells per well. On the following day, the cells were treated with DMSO, 1 μM BIX, 2 μM BayK, and a combination of both, in triplicate, for 6 days. The media was refreshed at day 3. RNA from each well was then isolated using the RNAeasy Mini Kit (Quiagen). Reverse transcription of the RNA was performed using the iScript™ cDNA Synthesis Kit (BioRad, Hercules, Calif.). Amplification of endogenous Sox2 was done using primers previously published (Takahashi, K., Okita, K., Nakagawa, M., and Yamanaka, S. (2007). Induction of pluripotent stem cells from fibroblast cultures. Nat Protoc 2, 3081-3089; Takahashi, K., and Yamanaka, S. (2006). Induction of pluripotent stem cells from mouse embryonic and adult fibroblast cultures by defined factors. Cell 126, 663-676) with Platinum PCR SuperMix (Invitrogen) on a Mastercycler® ep gradient PCR machine (Eppendorf).

`CC(C)C[C@H](NC(=O)OCC1c2ccccc2-c2ccccc21)C(=O)O` [Fmoc-Leu] was tested, and the cellular reprogramming ([1]; used at 5 μM) was “can enhance cellular reprogramming”.
`NC(=O)c1ccc(-c2nc(-c3ccc4c(c3)OCO4)c(-c3ccccn3)[nH]2)cc1` [SB431542] was tested, and the “ALP+ colonies with hESC-like morphology (FIG. 7A)” value ([2]; 4TFs transduced fibroblasts, 7 days after compound treatment, SB431542 at 2 μM) was “yielded colonies with hESC-like morphology as early as 7 days after compound treatment”, the “number of granulate (partially reprogrammed) colonies” value ([2]; 30 days) was “outnumbered by several fold the few hESC-like colonies” and the “dose dependence of effect on reprogramming” value ([2]; FIG. 7) was “dose dependent”. For the same compound, the “ALP+ colonies with characteristic hESC-like morphology” value ([2]; day 7 post-treatment (D14), SB431542 2 μM, PD0325901 0.5 μM, 1×10^4 cells) was 1-2 colonies, the reprogramming efficiency ([3]; Oct4, Klf4, Sox2 and c-Myc transduced MEFs, 11-day treatment) was about 1.8% and the reprogramming efficiency ([3]; Oct4, Klf4, and Sox2 transduced MEFs, 13-day treatment) was about 1.2%. The “efficiency and speed of development of pluripotent cells” value [4] was “improved efficiency and speed of development of pluripotent cells”.
In the case of `C=C(c1ccc(C(=O)O)cc1)c1cc2c(cc1C)C(C)(C)CCC2(C)C` [Bexarotene], the cellular reprogramming ([1]; at 3 μM) is reported as “can enhance cellular reprogramming”.
For `COC(=O)C1=C(C)NC(C)=C([N+](=O)[O-])C1c1ccccc1C(F)(F)F` (stereo not shown) [BayK8644], the “proliferation of mES cells (cell number)” value [5] was “does not lead to a change in proliferation”, the “reprogramming efficiency (GFP+ colonies)” value ([6]; OG2 MEFs transduced with OK, FIG. 3) was “did not increase reprogramming efficiency above OK-transduced MEF control” and the “reprogramming activity on OK-transduced MEFs” value ([6]; in the absence of BIX) was “no observable reprogramming activity on OK-transduced MEFs in the absence of BIX”. For the same compound, the SOX2 expression [7] was “does not induce SOX2 expression”.
